# In patent US20120213789A1, “New Molecular Target for Treatment of Cancer” (priority 2001, published 2012):
# Key:
# [1] = system: C4-2B metastatic cell line; experiment: Secretion of soluble tPSA and fPSA under SPB treatment; type: cell-based, human; conditions: culture supernatants
# Method: Cells were grown to 70-80% confluence at 37° C. and 5% CO2 in T-75 tissue culture plastic flasks. SPB stock solution was added to final concentrations of 0.5, 5.0, 10.0, and 25.0 mM in appropriate fresh media to the cell cultures. Cells were incubated at 37° C. and 5% CO2 for 72 hours. Attached cells were then harvested using a solution of 0.05% trypsin and 0.53 mM EDTA (Invitrogen Corp.). Attached cells were then pooled with any the detached cells and washed with PBS pH 7.2. Cell numbers and percent viability were determined using Trypan blue dye exclusion and a hemacytometer. At the time of their use in an experiment the viability was usually about 85% for untreated cells and a range of about 15-70% for treated cells, with the lower viabilities found at higher SPB concentrations (Thompson C, 1995; Cory et al., 1998; van Engeland et al., 1996). […] The data confirms the biological differences in these three cell lines and provides a stronger basis upon which to assess the behavior of the UC28 gene under the same SPB treatment conditions. For both of these experiments, supernatants were collected from the same experiments as in Example 1; cells were collected and assayed for apoptosis as well as for UC28 antigen expression using antibodies to SEQ ID NO:4.
# [2] = system: MLC-SV40 immortalized normal cells; experiment: Dose-response kinetics of UC28 protein expression by flow cytometry; type: cell-based; conditions: 0.5 to 25 mM SPB
# Method: Cells were grown to 70-80% confluence at 37° C. and 5% CO2 in T-75 tissue culture plastic flasks. SPB stock solution was added to final concentrations of 0.5, 5.0, 10.0, and 25.0 mM in appropriate fresh media to the cell cultures. Cells were incubated at 37° C. and 5% CO2 for 72 hours. Attached cells were then harvested using a solution of 0.05% trypsin and 0.53 mM EDTA (Invitrogen Corp.). Attached cells were then pooled with any the detached cells and washed with PBS pH 7.2. Cell numbers and percent viability were determined using Trypan blue dye exclusion and a hemacytometer. At the time of their use in an experiment the viability was usually about 85% for untreated cells and a range of about 15-70% for treated cells, with the lower viabilities found at higher SPB concentrations (Thompson C, 1995; Cory et al., 1998; van Engeland et al., 1996). UC28(C) is 2.14 mg/ml rabbit polyclonal aliquot directed against the inventors' UC28 patented biomarker developed by UCor R&D gene discovery program. The Antibody was produced against a […] (AA) synthetic peptide from the predicted AA sequence (AA 21-37) UCor, Inc. 840 Research Parkway Oklahoma City, Okla. 73104. Goat Anti-Rabbit CY5 polyclonal Fluorchrome was used as the secondary conjugate for UC28 C rabbit polyclonal antibody and a background control for UC28 C polyclonal. […]
# [3] = system: ML-SV40 Prostat Cell Line; experiment: Dual label UC28 C/AnnexinV flow cytometry after SPB treatment; type: cell-based; conditions: for Total AnnexV / Total UC28C: 72 hours, ML-SV40, UC28-GAR-CY5/AnnexV-FITC
# Method: Cells were grown to 70-80% confluence at 37° C. and 5% CO2 in T-75 tissue culture plastic flasks. SPB stock solution was added to final concentrations of 0.5, 5.0, 10.0, and 25.0 mM in appropriate fresh media to the cell cultures. Cells were incubated at 37° C. and 5% CO2 for 72 hours. Attached cells were then harvested using a solution of 0.05% trypsin and 0.53 mM EDTA (Invitrogen Corp.). Attached cells were then pooled with any the detached cells and washed with PBS pH 7.2. Cell numbers and percent viability were determined using Trypan blue dye exclusion and a hemacytometer. At the time of their use in an experiment the viability was usually about 85% for untreated cells and a range of about 15-70% for treated cells, with the lower viabilities found at higher SPB concentrations (Thompson C, 1995; Cory et al., 1998; van Engeland et al., 1996).
# VO1 Apoptosis Detection Kit contains: (1) Fluorocein-isothiocyante (FITC) conjugated AnnexinV [AnnexinV01] 1 ml (2) Propidium Iodide [Annex-Pi] 2.0 ml (3) 4× Binding Buffer [Annex-B] 20.0 ml. Vendor is CalTag Laboratories, Inc., 1849 Bayshore Boulevard #200 Burlingame, Calif. 94010.
# UC28(C) is 2.14 mg/ml rabbit polyclonal aliquot directed against the inventors' UC28 patented biomarker developed by UCor R&D gene discovery program. The Antibody was produced against a twenty amino acid (AA) synthetic peptide from the predicted AA sequence (AA 21-37) UCor, Inc. 840 Research Parkway Oklahoma City, Okla. 73104.
# Goat Anti-Rabbit CY5 polyclonal Fluorchrome was used as the secondary conjugate for UC28 C rabbit polyclonal antibody and a background control for UC28 C polyclonal. Vendor is Jackson ImmunoResearch Laboratories, Inc. 872 West Baltimore Pike, P.O. Box 9 West Grove, Pa. 19390.
# MsIgG-FITC mouse conjugated-FITC was used for background control for AnnexinV01. Vendor is Becicman Coulter, Inc. Diagnostic Division, 11800 SW 147th Ave. M/S 42-003, P.O. Box 169015, Miami, Floridia 33116-9015.
# A Coulter Elite engineered with a triple laser system was used to analyze all samples. Coulter control beads were used to align lasers for the dual label testing of cell samples. Laser alignment was required for both the Argon (488 nm line) laser and HeNe (633 nm line) laser. These alignments were performed prior to all measurements with the Argon laser (488 nm line) using fluorophores for FITC, RPE, PI and the HeNe laser (633 nm line) for the Cy5 fluorophores being used for the experiments described below. The histographs, voltage settings, gates, color compensation, and pressures were established prior to all sample processing. […]
# UC28 and Annexin V were co-labeled in the three cell lines to assess the induction of UC28 by SPB and its correlation to the induction of apoptosis. […] It may be noted that in previously published experiments, AnnexinV and PI were run in combination with several prostate cancer cell lines, one of which was LNCaP, but not with C4-2B or MLC-SV40. It was determined that they produced similar dose-response kinetics when exposed to 0.5-25 mM of SPB for 72 hours (Ng et al., 1989). That is, as the dose of SPB increased, so did the membrane perturbation events measured by these two methods.
# [4] = SPB, MLC-SV40, summary of Table 5
smiles,measurement,setting,value
"O=C([O-])CCCc1ccccc1.[Na+] [SPB, 4-Phenylbutyric Acid, Sodium Salt]",fPSA production,[1],down-regulated
same,tPSA production,[1],down-regulated
same,UC28 membrane protein expression,[2],do not over express
same,Total AnnexV,[3]; 0.5 mM SPB,11.4%
same,Total UC28C,[3]; 0.5 mM SPB,8.6%
same,Total AnnexV,[3]; 5.0 mM SPB,90.2%
same,Total UC28C,[3]; 5.0 mM SPB,6.8%
same,Total AnnexV,[3]; 10 mM SPB,95.7%
same,Total UC28C,[3]; 10 mM SPB,6.8%
same,Total AnnexV,[3]; 25 mM SPB,90.7%
same,Total UC28C,[3]; 25 mM SPB,9.3%
same,UC28 up regulation,[3]; [4],not
same,induction of apoptosis,[3]; [4],induced
